SMILES strings stand for the structures.

Here are results for four compounds from ChEMBL document CHEMBL1131178, “Novel disaccharide inhibitors of human glioma cell division” (1998).

The assay has as its system C6. Nature of the assay: Inhibitory activity against rat C6 Glioma cells stimulated with Fetal bovine serum; Not detectable. The format is functional, cell-based.
Turning to `CCCCCCCCO[C@H]1O[C@@H](COCC(CO)(CO)COS(=O)(=O)O)C(O)[C@H](O[C@@H]2O[C@@H](C)[C@@H](O)[C@H](O)[C@@H]2O)[C@@H]1NC(C)=O` (some centres undefined), the ID50 result was “Not detectable”.
The entry for `CCCCCCCCO[C@H]1O[C@@H](COCC(CO)(CO)COS(=O)(=O)O)[C@@H](OCC(CO)(CO)COS(=O)(=O)O)[C@H](O[C@@H]2O[C@@H](C)[C@@H](O)[C@H](O)[C@@H]2O)[C@@H]1NC(C)=O` is “Not detectable”; for `CCCCCCCCO[C@H]1O[C@@H](CO)[C@@H](OCC(CO)(CO)COS(=O)(=O)O)[C@H](O[C@@H]2OC(C)[C@@H](O)[C@H](O)[C@@H]2O)[C@@H]1NC(C)=O` (some centres undefined) it is “Not detectable”; for `CCCCCCCCOC1OC(COCC(CO)(CO)CO)C(O)C(OC2OC(C)C(O)C(O)C2O)C1NC(C)=O` (centres undefined) it is “Not detectable”.
